Measurements taken from paper PMC4805082, “Seizure control by decanoic acid through direct AMPA receptor inhibition” (Brain, 2015).

Legend:
[1] = set-up: method as in earlier work; conditions: average; children with intractable epilepsy on MCT diet; ref Haidukewych et al., 1982; Sills et al., 1986a; Dean et al., 1989; cited from earlier work
[2] = test system: GABAA receptor mediated IPSCs in hippocampal CA1 pyramidal neurons; assay: Whole-cell patch clamp, evoked GABAA receptor mediated IPSCs in CA1 pyramidal cells; type: cell-based, rat; conditions: 300 µM
Procedure: Male Sprague-Dawley rats (postnatal Days 19–30) were sacrificed using an overdose of isoflurane or pentobarbitone (500 mg/kg). After decapitation the brain was rapidly removed, the hippocampus or entorhinal cortex-hippocampus slices was dissected from the brain and […] thick transverse slices were prepared on a VT1200S vibratome (Leica) or Vibratome (Vibratome® 1500 sectioning system, Intracell). The slicing was performed in ice-cold sucrose-based solution containing (in mM): 75 sucrose, 87 NaCl, 22 glucose, 2.5 KCl, 7 MgCl2, 1.25 NaH2PO4, 0.5 CaCl2 and 25 NaHCO3, pH 7.4, 315–330 mOsm equilibrated with 95% O2 plus 5% CO2. […]
For electrophysiological recording, the slices were placed in a recording chamber constantly perfused with 32–34°C oxygenated artificial CSF solution using a gravity-driven perfusion system. […] Series resistance was monitored throughout experiments using a −5 mV step command and cells showing a >20% change in series resistance, a series of resistance of >20 MΩ or an unstable holding current were rejected. […] Inhibitory postsynaptic current (IPSCs) were recorded in the presence of DL-APV (100 µM), NBQX (10 µM) and CGP55845 (5 µM) to block NMDA-, AMPA- and GABAB-receptors, respectively. […]

[3] = test system: epileptiform activity (burst discharges) in hippocampal slices induced by pentylenetetrazol; assay: In vitro seizure model, pentylenetetrazol-induced epileptiform activity in hippocampal slices; type: cell-based, rat; conditions: 1 mM; pentylenetetrazol 2 mM, K+ 6 mM
Procedure: Male Sprague-Dawley rats (postnatal Days 19–30) were sacrificed using an overdose of isoflurane or pentobarbitone (500 mg/kg). After decapitation the brain was rapidly removed, the hippocampus or entorhinal cortex-hippocampus slices was dissected from the brain and […] thick transverse slices were prepared on a VT1200S vibratome (Leica) or Vibratome (Vibratome® 1500 sectioning system, Intracell). The slicing was performed in ice-cold sucrose-based solution containing (in mM): 75 sucrose, 87 NaCl, 22 glucose, 2.5 KCl, 7 MgCl2, 1.25 NaH2PO4, 0.5 CaCl2 and 25 NaHCO3, pH 7.4, 315–330 mOsm equilibrated with 95% O2 plus 5% CO2. The slices were then stored in a continuously oxygenated humidified interface holding chamber containing oxygenated artificial CSF (in mM): 120 NaCl, 22 glucose, 2.5 KCl, 1.3 MgSO4, 1 NaH2PO4, 25 NaHCO3 and 2.5 CaCl2, pH 7.4 296 mOsm, where they recovered for at least 1 h before use.
During the experiment, slices were transferred from the interface chamber into a submerged recording chamber, designed to optimize wash-in and wash-out of drugs, and continuously perfused using gravity feed at 3–6 ml/min with prewarmed (36°C) oxygenated artificial CSF (95% O2, 5% CO2). Field potentials were recorded with a glass microelectrode (1–2 MΩ) filled with artificial CSF solution placed in stratum radiatum of CA1 and were filtered at 1 kHz and digitized at 2 kHz (using an npi EXT-02F extracellular amplifier recorded with WinEDR software). In the pentylenetetrazol model, the epileptiform (paroxysmal) activity was induced by application of pentylenetetrazol (2 mM) to the perfusate and [K^+] was increased (to 6 mM); in low-Mg^2+ model, the epileptiform activity was elicited by using Mg^2+-free artificial CSF. Once the frequency of the paroxysmal activity was stable for at least 10 min, compounds were applied to the perfusate for the following 40 min, and washed out for a remaining 20 min. The anticonvulsant effects were evaluated by measuring the change in the frequency of the discharges at minute intervals. The discharge frequency was then averaged every 5 min during the experiment and normalized to baseline. The compounds applied in this study included: 1% dimethyl sulphoxide (DMSO), acetone (10 mM, Sigma), (±)-sodium 3-hydroxybutyrate (BHB) (10 mM, Sigma), and decanoic acid (1 mM, Alfa Aesar Pty). Acetone and decanoic acids were prepared as 1000× stocks in DMSO, and BHB was prepared as 100× stock. Stocks were dissolved in artificial CSF to achieve their final concentrations during experiments, and where applicable, experiments included constant levels of DMSO.

SMILES: CCCCCCCCCC(=O)O [decanoic acid]
- serum concentration [1]: 156.7 µM
- effect on evoked IPSCs [2]: no significant effect
- effect on 1/CV^2 for IPSCs ([2]; versus baseline, n = 6): no effect
- effect on epileptiform activity [3]: completely blocked
